Patent publication US20080292619A1, “Pharmaceutical Composition Containing Meltrin Antagonist” (MOCHIDA PHARMACEUTICAL CO., LTD., priority 2004, published 2008)
In the oligonucleotide strings, read from the 5' end, every base follows the letter of its sugar. An asterisk marks phosphorothioate; unmarked linkages are phosphodiester. Other units and linkages are bracketed, terminal groups are in braces. A string of capitals states the bases alone. d = 2'-deoxy (DNA)

system: human meltrin α RNA; assay: Suppression of human meltrin α expression by antisense compound in RD cell (real time PCR); type: cell-based; details: 50 nM; RD cell; corrected by GAPDH
Procedure, shortened: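 RD cells transfected with heat-denatured antisense oligodeoxynucleotide plus Lipofectin in Opti-MEM for 4 h at 37° C, then cultured 18 h. Meltrin α RNA quantified by TaqMan RT-PCR against plasmid standard curve, GAPDH-corrected; suppression vs untreated cells, rated +/++/+++ for ≥30/50/70%.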

Substance	suppression rate of expression, 50 nM
H144 + 9: atctgcaggcagaggcttct (ATCTGCAGGCAGAGGCTTCT; antisense; DNA, all phosphorothioate, methylation of C not given here)	+ (“+” when the suppression rate was at least 30%)
H144 + 10: gatctgcaggcagaggcttc (GATCTGCAGGCAGAGGCTTC; antisense; DNA, all phosphorothioate, methylation of C not given here)	+++ (“+++” when the suppression rate was at least 70%)
H144 + 11: ggatctgcaggcagaggctt (GGATCTGCAGGCAGAGGCTT; antisense; DNA, all phosphorothioate, methylation of C not given here)	++ (“++” when the suppression rate was at least 50%)
H144 + 12: aggatctgcaggcagaggct (AGGATCTGCAGGCAGAGGCT; antisense; DNA, all phosphorothioate, methylation of C not given here)	+++ (“+++” when the suppression rate was at least 70%)
H144 + 13: gaggatctgcaggcagaggc (GAGGATCTGCAGGCAGAGGC; antisense; DNA, all phosphorothioate, methylation of C not given here)	++ (“++” when the suppression rate was at least 50%)
H144 + 14: agaggatctgcaggcagagg (AGAGGATCTGCAGGCAGAGG; antisense; DNA, all phosphorothioate, methylation of C not given here)	++ (“++” when the suppression rate was at least 50%)
H144 + 15: cagaggatctgcaggcagag (CAGAGGATCTGCAGGCAGAG; antisense; DNA, all phosphorothioate, methylation of C not given here)	+ (“+” when the suppression rate was at least 30%)
H144 + 16: ccagaggatctgcaggcaga (CCAGAGGATCTGCAGGCAGA; antisense; DNA, all phosphorothioate, methylation of C not given here)	++ (“++” when the suppression rate was at least 50%)
H144 + 17: gccagaggatctgcaggcag (GCCAGAGGATCTGCAGGCAG; antisense; DNA, all phosphorothioate, methylation of C not given here)	+++ (“+++” when the suppression rate was at least 70%)
H144 + 19: tggccagaggatctgcaggc (TGGCCAGAGGATCTGCAGGC; antisense; DNA, all phosphorothioate, methylation of C not given here)	+++ (“+++” when the suppression rate was at least 70%)
H144: cagaggcttctgaggggggt (CAGAGGCTTCTGAGGGGGGT; antisense; DNA, all phosphorothioate, methylation of C not given here)	+ (“+” when the suppression rate was at least 30%)
H145 + 1: tctggccagaggatctgcag (TCTGGCCAGAGGATCTGCAG; antisense; DNA, all phosphorothioate, methylation of C not given here)	+++ (“+++” when the suppression rate was at least 70%)
H145 + 2: ttctggccagaggatctgca (dT*dT*dC*dT*dG*dG*dC*dC*dA*dG*dA*dG*dG*dA*dT*dC*dT*dG*dC*dA; antisense)	+++ (“+++” when the suppression rate was at least 70%)
H145 + 3: gttctggccagaggatctgc (dG*dT*dT*dC*dT*dG*dG*dC*dC*dA*dG*dA*dG*dG*dA*dT*dC*dT*dG*dC; antisense)	++ (“++” when the suppression rate was at least 50%)
H145 + 4: tgttctggccagaggatctg (dT*dG*dT*dT*dC*dT*dG*dG*dC*dC*dA*dG*dA*dG*dG*dA*dT*dC*dT*dG; antisense)	++ (“++” when the suppression rate was at least 50%)
H145 + 5: ttgttctggccagaggatct (dT*dT*dG*dT*dT*dC*dT*dG*dG*dC*dC*dA*dG*dA*dG*dG*dA*dT*dC*dT; antisense)	+++ (“+++” when the suppression rate was at least 70%)
H145 + 10: ccgagttgttctggccagag (dC*dC*dG*dA*dG*dT*dT*dG*dT*dT*dC*dT*dG*dG*dC*dC*dA*dG*dA*dG; antisense)	++ (“++” when the suppression rate was at least 50%)
H145: ctggccagaggatctgcagg (CTGGCCAGAGGATCTGCAGG; antisense; DNA, all phosphorothioate, methylation of C not given here)	+++ (“+++” when the suppression rate was at least 70%)
H146 + 10: ctggccaaggcatgagtgag (dC*dT*dG*dG*dC*dC*dA*dA*dG*dG*dC*dA*dT*dG*dA*dG*dT*dG*dA*dG; antisense)	+ (“+” when the suppression rate was at least 30%)
H146: catgagtgagccgagttgtt (dC*dA*dT*dG*dA*dG*dT*dG*dA*dG*dC*dC*dG*dA*dG*dT*dT*dG*dT*dT; antisense)	+ (“+” when the suppression rate was at least 30%)
H147: tcctggggtcctggccaagg (dT*dC*dC*dT*dG*dG*dG*dG*dT*dC*dC*dT*dG*dG*dC*dC*dA*dA*dG*dG; antisense)	++ (“++” when the suppression rate was at least 50%)
H148 + 5: ccaggcggagcccagtctcc (dC*dC*dA*dG*dG*dC*dG*dG*dA*dG*dC*dC*dC*dA*dG*dT*dC*dT*dC*dC; antisense)	+ (“+” when the suppression rate was at least 30%)
H148 + 10: gggtgccaggcggagcccag (dG*dG*dG*dT*dG*dC*dC*dA*dG*dG*dC*dG*dG*dA*dG*dC*dC*dC*dA*dG; antisense)	++ (“++” when the suppression rate was at least 50%)
H148: cggagcccagtctcccattg (dC*dG*dG*dA*dG*dC*dC*dC*dA*dG*dT*dC*dT*dC*dC*dC*dA*dT*dT*dG; antisense)	+ (“+” when the suppression rate was at least 30%)
H149 + 10: tattgtggagcaggtctgag (dT*dA*dT*dT*dG*dT*dG*dG*dA*dG*dC*dA*dG*dG*dT*dC*dT*dG*dA*dG; antisense)	+ (“+” when the suppression rate was at least 30%)
H149: caggtctgaggggtgccagg (dC*dA*dG*dG*dT*dC*dT*dG*dA*dG*dG*dG*dG*dT*dG*dC*dC*dA*dG*dG; antisense)	+ (“+” when the suppression rate was at least 30%)
H150 + 5: ggcacttggtgtggatattg (dG*dG*dC*dA*dC*dT*dT*dG*dG*dT*dG*dT*dG*dG*dA*dT*dA*dT*dT*dG; antisense)	+ (“+” when the suppression rate was at least 30%)
H150 + 10: atctgggcacttggtgtgga (dA*dT*dC*dT*dG*dG*dG*dC*dA*dC*dT*dT*dG*dG*dT*dG*dT*dG*dG*dA; antisense)	++ (“++” when the suppression rate was at least 50%)
H150 + 15: ggtggatctgggcacttggt (dG*dG*dT*dG*dG*dA*dT*dC*dT*dG*dG*dG*dC*dA*dC*dT*dT*dG*dG*dT; antisense)	+ (“+” when the suppression rate was at least 30%)
H150: ttggtgtggatattgtggag (dT*dT*dG*dG*dT*dG*dT*dG*dG*dA*dT*dA*dT*dT*dG*dT*dG*dG*dA*dG; antisense)	+ (“+” when the suppression rate was at least 30%)

same assay, conditions: 200 nM; RD cell; corrected by GAPDH

Substance	suppression rate of expression, 200 nM
H144: cagaggcttctgaggggggt (CAGAGGCTTCTGAGGGGGGT; antisense; DNA, all phosphorothioate, methylation of C not given here)	++ (“++” when the suppression rate was at least 50%)
H145: ctggccagaggatctgcagg (CTGGCCAGAGGATCTGCAGG; antisense; DNA, all phosphorothioate, methylation of C not given here)	+++ (“+++” when the suppression rate was at least 70%)
H146: catgagtgagccgagttgtt (dC*dA*dT*dG*dA*dG*dT*dG*dA*dG*dC*dC*dG*dA*dG*dT*dT*dG*dT*dT; antisense)	++ (“++” when the suppression rate was at least 50%)
H147: tcctggggtcctggccaagg (dT*dC*dC*dT*dG*dG*dG*dG*dT*dC*dC*dT*dG*dG*dC*dC*dA*dA*dG*dG; antisense)	+++ (“+++” when the suppression rate was at least 70%)
H148: cggagcccagtctcccattg (dC*dG*dG*dA*dG*dC*dC*dC*dA*dG*dT*dC*dT*dC*dC*dC*dA*dT*dT*dG; antisense)	++ (“++” when the suppression rate was at least 50%)
H149: caggtctgaggggtgccagg (dC*dA*dG*dG*dT*dC*dT*dG*dA*dG*dG*dG*dG*dT*dG*dC*dC*dA*dG*dG; antisense)	+++ (“+++” when the suppression rate was at least 70%)
H150: ttggtgtggatattgtggag (dT*dT*dG*dG*dT*dG*dT*dG*dG*dA*dT*dA*dT*dT*dG*dT*dG*dG*dA*dG; antisense)	+++ (“+++” when the suppression rate was at least 70%)
H152: cttctcacttaatataggcg (dC*dT*dT*dC*dT*dC*dA*dC*dT*dT*dA*dA*dT*dA*dT*dA*dG*dG*dC*dG; antisense)	+ (“+” when the suppression rate was at least 30%)
H153: ctgttgaaaaaaggtgtcgg (dC*dT*dG*dT*dT*dG*dA*dA*dA*dA*dA*dA*dG*dG*dT*dG*dT*dC*dG*dG; antisense)	++ (“++” when the suppression rate was at least 50%)
H155: tccaactggagctgaaagat (dT*dC*dC*dA*dA*dC*dT*dG*dG*dA*dG*dC*dT*dG*dA*dA*dA*dG*dA*dT; antisense)	++ (“++” when the suppression rate was at least 50%)
H156: taaaagttggtacaaaaaac (dT*dA*dA*dA*dA*dG*dT*dT*dG*dG*dT*dA*dC*dA*dA*dA*dA*dA*dA*dC; antisense)	+ (“+” when the suppression rate was at least 30%)
H159: actgacggcagtagctcaaa (dA*dC*dT*dG*dA*dC*dG*dG*dC*dA*dG*dT*dA*dG*dC*dT*dC*dA*dA*dA; antisense)	++ (“++” when the suppression rate was at least 50%)
H160: gcaccatagcacagcacagc (dG*dC*dA*dC*dC*dA*dT*dA*dG*dC*dA*dC*dA*dG*dC*dA*dC*dA*dG*dC; antisense)	++ (“++” when the suppression rate was at least 50%)
H161: tacctgtgcaagtagacaga (dT*dA*dC*dC*dT*dG*dT*dG*dC*dA*dA*dG*dT*dA*dG*dA*dC*dA*dG*dA; antisense)	++ (“++” when the suppression rate was at least 50%)
H163: cactgtaatcaacattctgc (dC*dA*dC*dT*dG*dT*dA*dA*dT*dC*dA*dA*dC*dA*dT*dT*dC*dT*dG*dC; antisense)	+ (“+” when the suppression rate was at least 30%)
